According to patent US8093386B2, “Thioaryl substituted inhibitors of zinc proteases and their use” (Bracco Imaging S.p.A, priority 2006, dated 2012):

Columns and labels:
Assay type in all cases: biochemical
MMP-2 = biological target: T1, MMP-2 (Homo sapiens, UniProt P08253); assay: In vitro fluorometric inhibition assay of MMPs: MMP-2
T1 construct: gift of Prof; Gillian Murphy (Oncology Department, Cambridge University, UK)
T1 sequence (P08253 110-660): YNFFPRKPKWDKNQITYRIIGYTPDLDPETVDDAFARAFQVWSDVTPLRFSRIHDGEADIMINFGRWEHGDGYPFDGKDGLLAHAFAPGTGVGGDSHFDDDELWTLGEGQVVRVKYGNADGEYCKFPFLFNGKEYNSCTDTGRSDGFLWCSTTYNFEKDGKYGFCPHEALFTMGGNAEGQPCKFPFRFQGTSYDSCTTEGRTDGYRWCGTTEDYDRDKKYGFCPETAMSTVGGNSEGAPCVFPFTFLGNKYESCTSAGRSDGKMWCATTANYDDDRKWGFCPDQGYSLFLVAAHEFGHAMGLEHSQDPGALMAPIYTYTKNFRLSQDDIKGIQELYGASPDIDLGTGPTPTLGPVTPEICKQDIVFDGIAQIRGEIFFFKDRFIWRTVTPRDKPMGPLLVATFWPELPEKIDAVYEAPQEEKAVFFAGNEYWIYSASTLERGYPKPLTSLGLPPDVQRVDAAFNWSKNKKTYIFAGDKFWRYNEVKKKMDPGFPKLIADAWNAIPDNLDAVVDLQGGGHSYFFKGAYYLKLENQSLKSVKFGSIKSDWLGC
Experimental: (§1) Analysis of the In Vitro Inhibition Activity of Zinc Metalloproteinases: In Vitro Inhibition of MMMPs
(§2) The human recombinant Progelatinase A (pro-MMP-2), B (pro-MMP-9), MMP-14cd and MMP-16cd, were provided by Prof. Gillian Murphy (Oncology Department, Cambridge University, UK); pro-MMP-1, pro-MMP-3, pro-MMP-7, pro-MMP-8, pro-MMP-13 and pro-MMP-14 were bought from Calbiochem. The proenzymes were activated immediately before the use with p-aminophenylmercuric acetate (APMA 2 mM for 1 h at 37° C. for MMP-1, MMP-2 and MMP-8, 1 mM for 1 h at 37° C. for MMP-9 and MMP-7, 1 mM for 30 min at 37° C. for MMP-13). Pro-MMP-14 and pro-MMP-3 were activated with trypsin 5 μg/ml for 15 min at 37° C. followed the soybean trypsin inhibitor (SBTI) 23 μg/ml for pro-MMP-14 and 62 μg/ml for pro-MMP-3. The catalytic domains of MMP-14 and MMP-16 were utilized without activation.
(§3) For the assay measurements, the stock solutions of the inhibitor (DMSO, 100 mM) were further diluted up to 7 different concentrations (0.01 nM-300 μM) for each MMP, in the buffer for the fluorometric assay (FAB: Tris 50 mM, pH=7.5, NaCl 150 mM, CaCl2 10 mM, Brij 35 0.05% and DMSO 1%). The solutions of activated enzyme (final concentrations 2.9 nM for MMP-2, 2.7 nM for MMP-9, 2.4 nM for MMP-7, 1 nM for MMP-14 and MMP-3, 1.5 nM for MMP-8 and MMP-16cd, 0.84 nM for MMP-14cd, 0.66 nM for MMP-13 and 0.20 nM for MMP-1) and of inhibitor were incubated in the assay buffer for 4 h at 25° C. After the addition of solution of fluorogenic substrate 200 μM Mca-Arg-Pro-Lys-Pro-Val-Glu-Nva-Trp-Arg-Lys(Dnp)-NH2 (Sigma) for MMP-3 and Mca-Lys-Pro-Leu-Gly-Leu-Dpa-Ala-Arg-NH2 (Bachem) for all the other enzymes in DMSO (final concentration 2 μM), the hydrolysis were monitored every 15 sec for 20 min, recording the increase in fluorescence (λex=325 nm, λem=400 nm) with a Molecular Device SpectraMax Gemini XS plates reader. The assays were made in triplicate in a total volume of 200 μl per well on 96 well-plates for microtitolation (Corning, black, NBS). The control wells were without inhibitor.
(§4) The inhibition activity of MMP was expressed in relative fluorescence unit (RFU). The percentage of inhibition was calculated using control reactions without inhibitor.
(§5) IC50 was determined using the formula: Vi/Vo=1/(1+[I]/IC50), wherein Vi is the initial rate of the substrate scission in presence of the inhibitor at the concentration [I] and Vo is the initial rate in the absence of inhibitor. The results were analyzed with the SoftMax Pro software and the GraFit software.

TACE (ADAM17) = biological target: T2, TACE (ADAM17) (Homo sapiens, UniProt P78536); assay: Inhibition of ADAMs: activity on TACE (ADAM17), fluorometric assay
T2 construct: purchased CalBiochem
T2 sequence (P78536 215-671 limits assumed): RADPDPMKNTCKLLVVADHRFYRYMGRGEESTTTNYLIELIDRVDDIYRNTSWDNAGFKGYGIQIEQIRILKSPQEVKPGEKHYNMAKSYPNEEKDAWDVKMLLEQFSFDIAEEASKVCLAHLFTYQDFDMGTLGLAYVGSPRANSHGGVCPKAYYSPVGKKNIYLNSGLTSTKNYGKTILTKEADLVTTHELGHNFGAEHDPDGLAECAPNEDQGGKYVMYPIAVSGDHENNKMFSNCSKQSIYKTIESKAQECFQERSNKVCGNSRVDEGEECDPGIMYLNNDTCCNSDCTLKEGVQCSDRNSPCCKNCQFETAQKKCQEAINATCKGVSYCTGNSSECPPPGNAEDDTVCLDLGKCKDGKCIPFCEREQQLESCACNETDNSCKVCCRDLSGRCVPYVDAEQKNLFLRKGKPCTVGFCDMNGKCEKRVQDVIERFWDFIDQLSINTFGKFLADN
Experimental: Inhibition of ADAMS: Activity on TACE (ADAM17) Method 1: (only TACE)
The human recombinant TACE, from CalBiochem, was dissolved in FAB buffer (Tris 50 mM, pH=7.5, NaCl 150 mM, CaCl2 10 mM, Brij 35 0.05% and DMSO 1%) at the concentration of 200 μg/mL (2.85 μM) as stock solution. For the assay measurements, the stock solutions of the inhibitor (DMSO, 100 mM) were further diluted up to seven different concentrations (0.01 nM-300 μM) in FAB buffer. A solution of the enzyme (final concentration 3 nM) and the solutions of the inhibitors at different concentrations were incubated in FAB for 20 minutes at 25° C. After the addition of a 200 μM solution of the substrate Mca-Lys-Pro-Leu-Gly-Leu-Dap(Dnp)-Ala-Arg-NH2 (Bachem) in DMSO (final concentration 2 μM), the hydrolysis was monitored for 20 min, recording the increase in fluorescence (λex=325 nm, λem=400 nm) using a Molecular Device SpectraMax Gemini XS plates reader. The assays were made in triplicate in a total volume of 200 μl per well, on 96 well microplates (Corning, black, NBS). The inhibition activity of TACE was expressed in relative fluorescent units (RFU). The percentage of inhibition was calculated based in respect to the blanks control without inhibitor. The IC50 was determined following the equation: Vi/Vo=1/(1+[I]/IC50), where Vi is the initial rate of the hydrolysis of the substrate in the presence of the inhibitor at the concentration [I] and Vo is the initial rate in the absence of inhibitor. The results were analysed using the software SoftMax Pro and GraFit.

MMP-9 = biological target: T3, MMP-9 (Homo sapiens, UniProt P14780); assay: In vitro fluorometric inhibition assay of MMPs: MMP-9
T3 construct: gift of Prof; Gillian Murphy (Oncology Department, Cambridge University, UK)
T3 sequence (P14780 107-707 limits assumed): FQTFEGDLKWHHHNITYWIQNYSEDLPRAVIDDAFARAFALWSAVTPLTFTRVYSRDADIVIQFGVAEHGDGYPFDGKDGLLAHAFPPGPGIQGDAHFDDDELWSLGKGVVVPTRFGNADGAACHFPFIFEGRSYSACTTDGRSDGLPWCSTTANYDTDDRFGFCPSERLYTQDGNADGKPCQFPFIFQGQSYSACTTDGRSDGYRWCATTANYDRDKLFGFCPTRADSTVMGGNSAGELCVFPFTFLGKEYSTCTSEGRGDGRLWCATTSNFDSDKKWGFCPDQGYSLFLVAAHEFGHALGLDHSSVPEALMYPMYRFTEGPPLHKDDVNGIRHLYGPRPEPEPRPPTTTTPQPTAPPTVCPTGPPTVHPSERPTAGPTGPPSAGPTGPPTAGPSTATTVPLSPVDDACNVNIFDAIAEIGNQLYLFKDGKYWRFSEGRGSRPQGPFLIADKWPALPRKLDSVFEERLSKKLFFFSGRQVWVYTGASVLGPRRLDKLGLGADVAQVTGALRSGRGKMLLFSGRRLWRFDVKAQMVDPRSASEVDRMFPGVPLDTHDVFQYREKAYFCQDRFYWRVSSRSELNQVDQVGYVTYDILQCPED
Experimental: as §1
as §2, with “The proenzymes were activated immediately before the use with p-aminophenylmercuric acetate (APMA 2 mM for 1 h at 37° C. for MMP-1, MMP-2 and MMP-8, 1 mM for 1 h at 37° C. for MMP-9 and MMP-7, 1 mM for 30 min at 37° C. for MMP-13).” left out
as §3, with “The solutions of activated enzyme (final concentrations 2.9 nM for MMP-2, 2.7 nM for MMP-9, 2.4 nM for MMP-7, 1 nM for MMP-14 and MMP-3, 1.5 nM for MMP-8 and MMP-16cd, 0.84 nM for MMP-14cd, 0.66 nM for MMP-13 and 0.20 nM for MMP-1) and of inhibitor were incubated in the assay buffer for 4 h at 25° C.” left out
as §4, §5

MMP-1 = biological target: T4, MMP-1 (Homo sapiens, UniProt P03956); assay: In vitro fluorometric inhibition assay of MMPs: MMP-1; details: Table I, cells marked (*)
T4 construct: purchased Calbiochem
T4 sequence (P03956 100-469): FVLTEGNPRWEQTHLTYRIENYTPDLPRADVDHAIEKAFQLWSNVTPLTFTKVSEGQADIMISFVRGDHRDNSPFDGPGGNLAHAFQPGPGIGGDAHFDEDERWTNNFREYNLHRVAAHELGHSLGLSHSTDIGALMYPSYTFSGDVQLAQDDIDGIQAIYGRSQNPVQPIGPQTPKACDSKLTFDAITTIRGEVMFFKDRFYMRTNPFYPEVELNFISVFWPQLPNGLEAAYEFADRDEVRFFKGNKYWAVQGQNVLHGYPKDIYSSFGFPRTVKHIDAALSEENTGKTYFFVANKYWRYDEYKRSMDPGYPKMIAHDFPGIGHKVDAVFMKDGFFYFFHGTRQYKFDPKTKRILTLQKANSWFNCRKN
Experimental: as §1, §2, §3, §4, §5

IC50 (MMP-2; text b547) | IC50 (TACE (ADAM17); text b547) | IC50 (MMP-2; Table I, cells marked (*)) | IC50 (MMP-2; Table IV) | IC50 (TACE (ADAM17); Table IV) | IC50 (MMP-9; Table I, cells marked (*)) | IC50 (MMP-9; Table IV) | IC50 (MMP-1) | SMILES
1450 ± 33 nM | 462 ± 21 nM | – | – | – | – | – | – | CC#CCOc1ccc(Sc2ccccc2CC(=O)NO)cc1 [Compound 21c, 2-(2-(4-(but-2-iniloxy)phenylthio)phenyl)-N-hydroxyacetamide]
– | – | 6.8 ± 0.53 nM | 6.8 ± 0.53 nM | 46200 ± 5340 nM | 120 ± 17 nM | 120 ± 17 nM | – | COc1ccc(-c2ccc(Sc3ccccc3CC(=O)NO)cc2)cc1 [Compound 24, N-hydroxy-2-(2-(4′-methoxybiphenyl-4-ylthio)phenyl)acetamide]
– | – | 41.1 ± 1.4 nM | – | 13400 ± 1930 nM | 1200 ± 200 nM | – | 171000 ± 5000 nM | O=C(Cc1ccccc1Sc1ccc(-c2ccccc2)cc1)NO [Compound 21a]
– | – | – | 6200 ± 300 nM | 10200 ± 670 nM | – | – | – | COc1ccc(Sc2ccccc2CC(=O)NO)cc1 [Compound 21b, N-hydroxy-2-(2-(4-methoxyphenylthio)phenyl)acetamide]
